According to ChEMBL document CHEMBL5046245, “Identification of Pyruvate Carboxylase as the Cellular Target of Natural Bibenzyls with Potent Anticancer Activity against Hepatocellular Carcinoma via Metabolic Reprogramming” (J Med Chem, 2022):
Activity calls are given as the source filed them. The calls are words filed in the database; no cut-off is given here.

Key:
HepG2 [1] = assay: Cytotoxicity against human HepG2 cells assessed as cell viability at 62.5 to 250 nM preincubated for 48 hrs by MTT assay; assay type: functional, cell-based; conditions: dose 62.5-250 nM
[2] = Inhibition of pyruvate carboxylase in human HCCLM3 cell lysate measured upto 24 hrs by PC assay kit; assay type: subcellular
[3] = Inhibition of pyruvate carboxylase in human HCCLM3 cells measured upto 24 hrs by PC assay kit; assay type: cell-based
[4] = Inhibition of pyruvate carboxylase in human HepG2 cell lysate measured upto 24 hrs by PC assay kit; assay type: subcellular
[5] = Inhibition of pyruvate carboxylase in human HepG2 cells measured upto 24 hrs by PC assay kit; assay type: cell-based
[6] = Antiproliferative activity against human HCCLM3 cells assessed as inhibition of cell growth measured after 48 hrs by MTT assay; assay type: functional, cell-based; conditions: HCCLM3, 48 h
HepG2 [7] = assay: Antiproliferative activity against human HepG2 cells assessed as inhibition of cell growth measured after 48 hrs by MTT assay; assay type: functional, cell-based; conditions: HepG2, 48 h
HepG2 [8] = assay: Cytotoxicity against human HepG2 cells assessed as cell viability at 8 nM incubated for 48 hrs by MTT assay; assay type: functional, cell-based
HepG2 [9] = assay: Competitive inhibition of recombinant pyruvate carboxylase in human HepG2 cell lysate in presence of Erianin at 20 uM for 120 mins followed by irradiation of 365 nm UV light for 15 min by Native -PAGE analysis; assay type: subcellular
[10] = Non-competitive inhibition of pyruvate carboxylase (unknown origin); set-up: species or system Homo sapiens
[11] = Competitive inhibition of pyruvate carboxylase (unknown origin) assessed as inhibition constant at varying concentrations of ATP; set-up: species or system Homo sapiens
HepG2 [12] = assay: Cytotoxicity against human HepG2 cells assessed as cell viability at 1 to 4 nM incubated for 2 hrs by MTT assay; assay type: functional, cell-based; conditions: dose 1-4 nM

Structure (SMILES)	IC50 [2] [nM]	IC50 (HepG2 [7]) [nM]	IC50 [6] [µM]	also measured
COc1ccc(CC(O)c2cc(OC)c(OC)c(OC)c2)cc1O (configuration not stated)	–	–	–	Activity (HepG2 [1]): Active
O=C(O)CC(=O)C(=O)O [OXALOACETATE]	88.8	–	–	IC50 [3]: 100 nM; IC50 [4]: 88.8 nM; IC50 [5]: 100 nM
COc1ccc(CC(CCNC(=O)CNC(=O)[C@H](CCCCNC(=O)CCCC[C@@H]2SC[C@@H]3NC(=O)N[C@@H]32)NC(=O)c2ccc(N=[N+]=[N-])cc2)c2cc(OC)c(OC)c(OC)c2)cc1O (some centres not stated)	–	–	–	Activity (HepG2 [8]): inactive
COc1ccc(CC(CCNC(=O)[C@H](CCCCNC(=O)CCCC[C@@H]2SC[C@@H]3NC(=O)N[C@@H]32)NC(=O)CCC2(C)N=N2)c2cc(OC)c(OC)c(OC)c2)cc1O (some centres not stated)	–	–	–	Activity (HepG2 [8]): inactive
COc1ccc(CC(CCNC(=O)[C@H](CCCCNC(=O)CCCC[C@@H]2SC[C@@H]3NC(=O)N[C@@H]32)NC(=O)c2ccc(N=[N+]=[N-])cc2)c2cc(OC)c(OC)c(OC)c2)cc1O (some centres not stated)	–	–	–	Activity (HepG2 [8]): inactive
OC[C@H]1O[C@@H](Oc2cccc3c2-c2c(O)cc(O)cc2C[C@H]3O)[C@H](O)[C@@H](O)[C@@H]1O	> 50000	> 6420	> 100	–
COc1ccc(CC(CCNC(=O)[C@H](CCCCNC(=O)CCC2(C)N=N2)N=[N+]=[N-])c2cc(OC)c(OC)c(OC)c2)cc1O (some centres not stated)	–	–	–	inhibition (HepG2 [9]): Active
Nc1ncnc2c1ncn2[C@@H]1O[C@@H]2CO[P@@](=O)(O)O[C@H]3[C@@H](O)[C@H](n4cnc5c(N)ncnc54)O[C@@H]3CO[P@@](=O)(O)O[C@H]2[C@H]1O	–	–	–	Ki [10]: 700 nM
N[C@@H](CC(=O)O)C(=O)O [ASPARTIC ACID]	–	–	–	Ki [11]: 700 nM
CCCCCCCCOC(=O)c1cc(O)c(O)c(O)c1 [OCTYL_GALLATE]	–	–	–	Ki [10]: 700 nM
COc1ccc(CC(CCNC(=O)COCCOCCOCCNC(=O)[C@H](CCCCNC(=O)CCCC[C@@H]2SC[C@@H]3NC(=O)N[C@@H]32)NC(=O)c2ccc(N=[N+]=[N-])cc2)c2cc(OC)c(OC)c(OC)c2)cc1O (some centres not stated)	–	–	–	Activity (HepG2 [8]): inactive
COc1ccc(CC(CCNC(=O)COCCOCCOCCNC(=O)[C@H](CCCCNC(=O)CCCC[C@@H]2SC[C@@H]3NC(=O)N[C@@H]32)NC(=O)CCC2(C)N=N2)c2cc(OC)c(OC)c(OC)c2)cc1O (some centres not stated)	–	–	–	Activity (HepG2 [8]): inactive
COc1ccc(CC(CCOC(=O)CCCCCNC(=O)CCCC[C@@H]2SC[C@@H]3NC(=O)N[C@@H]32)c2cc(OC)c(OC)c(OC)c2)cc1O (some centres not stated)	–	–	–	Activity (HepG2 [12]): inactive
COc1ccc(CC(CCNC(=O)[C@H](CCCCNC(=O)CCC2(C)N=N2)NC(=O)CCCC[C@@H]2SC[C@@H]3NC(=O)N[C@@H]32)c2cc(OC)c(OC)c(OC)c2)cc1O (some centres not stated)	–	–	–	Activity (HepG2 [8]): inactive
COc1ccc(CC(CCNC(=O)[C@H](CCCCNC(=O)c2ccc(N=[N+]=[N-])cc2)NC(=O)CCCC[C@@H]2SC[C@@H]3NC(=O)N[C@@H]32)c2cc(OC)c(OC)c(OC)c2)cc1O (some centres not stated)	–	–	–	Activity (HepG2 [8]): inactive
COc1ccc(CCc2cc(OC)c(OC)c(OC)c2OCCOC(=O)CCCCCNC(=O)CCCC[C@@H]2SC[C@@H]3NC(=O)N[C@@H]32)cc1O	–	–	–	Activity (HepG2 [12]): inactive
COc1cc(O[C@@H]2O[C@H](CO)[C@@H](O)[C@H](O)[C@H]2O)cc2ccc3cccc(O)c3c12	65	2660	29.9	IC50 [3]: 97 nM
COc1ccc(CC(CCO)c2cc(OC)c(OC)c(OC)c2)cc1O (configuration not stated)	–	–	–	Activity (HepG2 [1]): Active; Activity (HepG2 [8]): inactive

Continued, in another order:

IC50 [2] [nM]	IC50 (HepG2 [7]) [nM]	Structure (SMILES)	IC50 [6] [µM]	also measured
204	1740	COc1cc(O)c2c(c1)CCc1cccc(O)c1-2	8.54	IC50 [3]: 104 nM
> 50000	1090	COc1cc(CCc2cc(O)c(OC)c(OC)c2)ccc1O	> 100	–
> 50000	> 100000	COc1cc(O)cc2c1-c1c(O)cc(O)cc1C[C@@H]2O	> 100	–
191	3020	COc1cc(CCc2cc(OC)c(O)c(OC)c2)ccc1O [MOSCATILIN]	2.09	IC50 [3]: 34 nM
> 50000	> 100000	COc1cc(O[C@@H]2O[C@H](CO)[C@@H](O)[C@H](O)[C@H]2O)cc2c1-c1c(O)cccc1[C@H](O)C2	> 100	–
> 50000	> 100000	COc1cc(O)cc2c1-c1c(O)cccc1CC2 [HIRCINOL]	> 100	–
> 50000	> 100000	COc1ccc(/C=C/c2cc(O)cc(O[C@@H]3O[C@H](CO)[C@@H](O)[C@H](O)[C@H]3O)c2)cc1O [RHAPONTIN]	> 100	–
264	2580	COc1cc(O)cc2c1-c1c(O)cccc1[C@@H](O)C2	> 100	IC50 [3]: 47 nM
> 50000	> 100000	COc1cc(O)cc2c1-c1c(O)cc(O)cc1[C@@H](O)C2	> 100	–
125	1880	COc1cc(O)cc(CCc2ccc(O)c(OC)c2)c1 [GIGANTOL]	57.9	IC50 [3]: > 50000 nM
> 50000	> 100000	COc1cc(O)cc(CCc2ccc(OC)c(O)c2)c1	> 100	–
> 50000	> 100000	COc1cc(O)cc2c1-c1c(O)cccc1C[C@@H]2O	> 100	–
